{
  "source": "patent US20150335678A1",
  "about": "“METHOD OF ACTIVATING STEM CELLS IN AN ANIMAL AND THE USE OF CHLORINE DIOXIDE FOR PREPARING MEDICINES FOR ACTIVATING STEM CELLS IN AN ANIMAL” (priority 2012, published 2015)",
  "key": {"[1]": {"system": "BrdU-positive (migrating) cells", "experiment": "BrdU-positive (migrating) cells in the SVZ region", "type": "in vivo, Sprague-Dawley rats", "details": "for number of BrdU-positive cells in the SVZ region, migration (mean±SD): BrdU twice within 24 hours after model established", "description": "Male Sprague-Dawley rats with the age of 12 weeks and weight of 250^˜280 g were used in the experiment after acclimating for a week.\nA middle cerebral artery occlusion model was first established in compliance with the method of Longa E Z et al. (Longa E Z, et al. Reversible middle cerebral artery occlusion without craniectomy in rats. Stroke 20:84-91, 1989). More specifically, 0.36 g/kg of 10% chloral hydrate was administered intraperitoneally to rats which had been fasted for 12 hours (although given free access to water) to anesthetize the rats. Next, a midline incision was made in the neck to expose the right common carotid artery. Then, the internal carotid artery and external carotid artery were separated, the posterior carotid artery, which is a branch of the external carotid artery, and the thyroidea arteria were coagulated and severed, the external carotid artery was ligated at the branch of the lingual artery and maxillary artery, a small puncture was formed in the external carotid artery, 4-0 Nylon suture was passed through the common carotid artery from the puncture, and gradually inserted into the internal carotid artery until there was resistance. The length of the Nylon suture was about 18^˜20 mm from the branch of the common carotid artery. As a result of occluding the middle cerebral artery with Nylon suture, an ischemic state was applied for 2 hours to create a middle cerebral artery occlusion model.\nA cerebral ischemia/reperfusion injury model was established by removing the Nylon suture from the middle cerebral artery of the occlusion model and following reperfusion of blood.\nThe first solution was a mixed solution made of sodium chlorite with the concentration of 7.47% and sodium chloride with the concentration of 1.59% with deionized water; the second solution was made of citric acid with the concentration of 16.7% with deionized water. Same volume of solutions were taken out from different vessels with different volumes and mixed up. Allow the solution to mix for 3-5 minutes and dilute it five times with normal saline, and then filter it with 0.22 μm filter membrane of double-deck. The solution was immediately put into injector. The solution was prepared once being used.\nTreatment group (120 rats): A cerebral ischemia/reperfusion injury model was established for the rats already. To administer chlorine dioxide solution everytime that prepared from procedure (3) through carotid artery after the second day the model has established, once a day for total ten days.\nThirty Rats in each group were intraperitoneally injected twice with 50 mg/kg of BrdU within 24 hours after model established. The rats were autopsied on day 7, 14 and 21 after model established for preparation of frozen brain sections. The presence of BrdU-positive cells in the SVZ region was analyzed by immunochemical stain using mouse anti-rat BrdU monoclonal antibody.\nBRt(%)=(Bt−St)/(Mt−St)×100"}, "[2]": {"system": "hip arthritis (osteoarthritis)", "experiment": "Hip arthritis patients: VAS pain intensity, WOMAC, tolerance (Example 5)", "type": "in vivo, human", "details": "11 hip arthritis patients; for WOMAC mean (±SD): beginning 55.03 (±26.63); for Doctor VAS pain intensity, mean (±SD), 0-100: beginning 55.23 (±9.66); for Patients VAS pain intensity, mean (±SD), 0-100: beginning 58.32 (±8.25)", "description": "(§1) To smear the solution over the skin of hip arthritis with swab immediately, once a day for consecutive 20 days. Then stop the administration for three months, and then began continuous treatment for 20 days. Clean and disinfect the regions before treatment, conduct local anesthetic 30 minutes before the operation.\n(§2) The subjects who joined in the treatment group as volunteers consisted of 11 patients with hip arthritis (5 male, aged from 40 to 70 years old and 6 female, aged from 40 to 65 years old.). Case histories were recorded at the third and the sixth month by collecting personal and data of human body (height, body weight, BMI, blood pressure and heart rate.) Then evaluate the following parameters:\nPain intensity: VAS was used, ranging from 0 (normal) to 100 (maximum intensity), it was conducted by the doctor and patient:\nSeriousness of the illness: Womac, namely, self-assessment of hip arthritis that consists of 24 items was used to detect the development and effect of the treatment."}, "[3]": {"system": "cartilage of hip joint", "experiment": "Hip arthritis patients: thickness of cartilage of hip joint by ultrasonic scanning", "type": "in vivo, human", "details": "listed as activating agent of stem cells comprising a chlorine dioxide; for Medical cartilage thickness mean(±SD): before administration 0.51 (±0.07); for Lateral cartilage thickness mean(±SD): before administration 0.61 (±0.09)", "description": "as §1, §2\nThickness of cartilage of hip joint: measured by ultrasonic scanning at the core, the center and the lateral."}, "[4]": {"system": "localized psoriasis", "experiment": "Localized psoriasis patients, cure and recurrence vs cream control (Example 8)", "type": "in vivo, human", "excerpt": "The subjects consisted of 86 patients with localized psoriasis aged from 28 to 68 years old, among which 43 patients were randomly assigned to treatment group, and 43 to control group. The disease broke out continuously with more than nine months of course of disease. The purpose of the clinical test was explained to all subjects and their consent was obtained before conducting the clinical test. Treatment group: 29 male patients (74.36%), 10 female (25.64%); age (49.05±14.57); course of disease (12±9) years. Control group: 28 male patients (68.29%), 13 female patients (31.71%); age (47.05±16.25); course of disease (12±10) years.\nThe solution was immediately smeared over the affected region, once a day for 10 to 15 days, and then stop administration. If it relapsed, reusing it again. […] If it relapsed, reusing it again. The due time was six months.\nThe criteria for measuring the effect: Take PASI as reference.\nA. The areas: grading from 0 to 6 for the four body parts respectively: area: 0=no rash;\nB. Severity of the clinic: erythema; infiltration; scale. Grading each characteristics from 0 to 4 point; 0=no; 1=mild; 2=moderate; 3=severe; 4=extremely severe. Calculating the grades of each parts and working out the total points. The criteria of the effect (PASI decrease percentage): recovery score: ≧95%; excellent score both ≧61% and <95%; improved score both ≧20% and <60%; No effect score<20%.\nThe example was enumeration data and a Chi-square test was conducted to compare the cure rate and recurrence rate of the two groups."}, "[5]": {"details": "after 6 months, 43 patients per group"}, "[6]": {"details": "follow-up average 6 months, 35 treatment, 32 control patients"}},
  "data": [
    {"smiles": "[O][Cl+][O-]", "note": "[chlorine dioxide solution, chlorine dioxide]", "values": [
      {"measurement": "BRt: BrdU-positive (migrating) cells in treatment group relative to model group = 100%", "setting": "[1]; Day 7", "result": 121.0, "unit": "%"},
      {"measurement": "number of BrdU-positive cells in the SVZ region, migration (mean±SD)", "setting": "[1]; Day 7, model group 136.56 ± 15.63, sham 2.85 ± 1.05, diluted solution via carotid artery once a day, ten days", "result": "164.61 ± 16.3", "unit": "No. cells/mm2"},
      {"measurement": "BRt: BrdU-positive (migrating) cells in treatment group relative to model group = 100%", "setting": "[1]; Day 14", "result": 144.7, "unit": "%"},
      {"measurement": "number of BrdU-positive cells in the SVZ region, migration (mean±SD)", "setting": "[1]; Day 14, model group 78.6 ± 8.5, sham 3.39 ± 1.35", "result": "112.2 ± 10.6", "unit": "No. cells/mm2"},
      {"measurement": "BRt: BrdU-positive (migrating) cells in treatment group relative to model group = 100%", "setting": "[1]; Day 21", "result": 227.1, "unit": "%"},
      {"measurement": "number of BrdU-positive cells in the SVZ region, migration (mean±SD)", "setting": "[1]; Day 21, model group 34.9 ± 5.48, sham 3.11 ± 1.05", "result": "75.3 ± 8.39", "unit": "No. cells/mm2"},
      {"measurement": "distribution of BrdU-positive cells in SVZ region", "setting": "[1]; treatment group, in model group only on the surface of the SVZ region", "result": "widely distributed from the surface to interior of the SVZ region"},
      {"measurement": "time until pain and itch during administration disappeared completely", "setting": "[2]; topical with DMSO", "result": "about an hour"},
      {"measurement": "tolerance", "setting": "[2]; topical with DMSO", "result": "without local or systemic anaphylactic reaction"},
      {"measurement": "WOMAC mean (±SD)", "setting": "[2]; sixth month, topical with DMSO", "result": "6.54 (±5.86)"},
      {"measurement": "Doctor VAS pain intensity, mean (±SD), 0-100", "setting": "[2]; sixth month, topical with DMSO", "result": "7.11 (±6.93)"},
      {"measurement": "Patients VAS pain intensity, mean (±SD), 0-100", "setting": "[2]; sixth month, topical with DMSO", "result": "6.32 (±6.53)"},
      {"measurement": "WOMAC mean (±SD)", "setting": "[2]; third month, topical with DMSO", "result": "20.11 (±22.53)"},
      {"measurement": "Doctor VAS pain intensity, mean (±SD), 0-100", "setting": "[2]; third month, topical with DMSO", "result": "20.03 (±7.32)"},
      {"measurement": "Patients VAS pain intensity, mean (±SD), 0-100", "setting": "[2]; third month, NaClO2 8%/NaCl 2% + citric acid 15% 1:1, DMSO 1:1, smeared once a day 20 days, three months off, 20 days", "result": "18.24 (±7.25)"},
      {"measurement": "Medical cartilage thickness mean(±SD)", "setting": "[3]; sixth month", "result": "0.66 (±0.16) mm"},
      {"measurement": "Lateral cartilage thickness mean(±SD)", "setting": "[3]; sixth month", "result": "0.73 (±0.11) mm"},
      {"measurement": "Central cartilage thickness mean (±SD)", "setting": "[3]; sixth month, before administration 0.73 (±0.09)", "result": "0.89 (±0.09) mm"},
      {"measurement": "Central cartilage thickness, percentage increase", "setting": "[3]; sixth month", "result": 12.7, "unit": "%"},
      {"measurement": "Lateral cartilage thickness, percentage increase", "setting": "[3]; sixth month", "result": 8.9, "unit": "%"},
      {"measurement": "Medical cartilage thickness, percentage increase", "setting": "[3]; sixth month", "result": 11.9, "unit": "%"},
      {"measurement": "Medical cartilage thickness mean(±SD)", "setting": "[3]; third month, ultrasound, 11 hip arthritis patients, topical with DMSO", "result": "0.59 (±0.08) mm"},
      {"measurement": "Lateral cartilage thickness mean(±SD)", "setting": "[3]; third month", "result": "0.67 (±0.10) mm"},
      {"measurement": "Central cartilage thickness, percentage increase", "setting": "[3]; third month", "result": 8.2, "unit": "%"},
      {"measurement": "Lateral cartilage thickness, percentage increase", "setting": "[3]; third month", "result": 9.8, "unit": "%"},
      {"measurement": "Medical cartilage thickness, percentage increase", "setting": "[3]; third month", "result": 15.6, "unit": "%"},
      {"measurement": "No. effective patients", "setting": "[4]; [5]", "result": "0 (0) ^"},
      {"measurement": "No. ineffective patients", "setting": "[4]; [5]", "result": "0 (0)"},
      {"measurement": "effective patients percentage", "setting": "[4]; [5]", "result": "0 (0) ^ %"},
      {"measurement": "improvement Percentage", "setting": "[4]; [5]", "result": 4.6, "unit": "%"},
      {"measurement": "ineffective patients percentage", "setting": "[4]; [5]", "result": "0 (0) %"},
      {"measurement": "No. Cure", "setting": "[4]; after 6 months, 43 patients per group, smeared once a day 10 to 15 days, repeated on relapse, at most three treatments, test solution NaClO2 10%/NaCl 2.5% + citric acid 22% 1:1, PASI-based", "result": 41},
      {"measurement": "Cure Percentage", "setting": "[4]; after 6 months, 43 patients per group, topical once a day 10 to 15 days, repeated on relapse, P<0.01 between groups", "result": 95.3, "unit": "%"},
      {"measurement": "No. non recurrence patients", "setting": "[4]; [6]", "result": 33},
      {"measurement": "non recurrence patients percentage", "setting": "[4]; [6]", "result": 94.3, "unit": "%"},
      {"measurement": "No. recurrence patients", "setting": "[4]; follow-up average 6 months, 35 treatment, 32 control patients followed", "result": 2},
      {"measurement": "recurrence patients percentage (recurrence rate)", "setting": "[4]; follow-up average 6 months, 35 treatment, 32 control patients, P<0.01 between groups", "result": 5.7, "unit": "%"}
    ]}
  ]
}
